{"source": "patent US11102978B2", "about": "“Herbicide combination” (priority 2016, dated 2021)", "assay_type_in_all_cases": "in vivo", "key": {"[1]": {"system": "Papaver rhoeas (weed code—PAPRH)", "experiment": "Field trial, weed control of Papaver rhoeas in wheat", "details": "in Triticum aesti, 12 DAA", "description": "(§1) Studies were conducted to compare the weed controlling activity of the combination of bensulfuron methyl, metsulfuron methyl with herbicides selected from the classes of synthetic auxins, photosystem II inhibitors, very long chain fatty acid inhibitor, carotene biosynthesis inhibitor and compare its observed efficacy with the “expected” efficacy when bensulfuron methyl and metsulfuron methyl and select individual herbicides were used to treat both dicotyledonous and monocotyledonous weeds. Any difference between the observed and “expected” efficacy could be attributed to synergy between the two compounds in the control of […] weeds. The expected efficacy of a combination of bensulfuron methyl, metsulfuron methyl with herbicides selected from the classes of synthetic auxins, photosystem II inhibitors, very long chain fatty acid inhibitor, carotene biosynthesis inhibitor was calculated using the well-established Colby method.\nIn the Colby method, the expected (or predicted) response of a combination of herbicides is calculated by taking the product of the observed response for each individual component of the combination when applied alone divided by 100 and subtracting this value from the sum of the observed response for each component when applied alone. An unexpected enhancement in efficacy of the combination is then determined by comparing the observed response of the combination to the expected (or predicted) response as calculated from the observed response of each individual component alone. If the observed response of the combination is greater than the expected (or predicted) response, or stated conversely, if the difference between the observed and expected response is greater than zero, then the combination is said to be synergistic or unexpectedly effective. (Colby, S. R., Weeds, 1967(15), p. 20-22) The Colby method requires only a single dose of each herbicide applied alone and the mixture of both doses. The formula used to calculate the expected efficacy (EE) which was compared with the observed efficacy (OE) to determine the efficacy of the present invention is explained hereinbelow: EE=(B efficacy+A efficacy−(B efficacy×A efficacy)/100)\nThe weed control activity of the individual herbicides of the invention and their combinations were evaluated on weeds such as Viola arvensis (weed code—VIOAR), Veronica persica (weed code—VERPE), Papaver rhoeas (weed code: PAPRH), Galium aparine (weed code—GALAP), Matricaria recutita weed code—MATCH), Veronica hederifolia (weed code—VERHE) and Viola arvensis (weed code—VIOAR.). The trial was carried out in Randomized Complete Block (RCB) method, all field trials were conducted using this method. Each trial were replicated four times and conducted under GEP guidelines. Application volumes were varied for each mixture. Such field trials were carried out at various locations so as to generate independent data, the locations were chosen randomly across European nations. Bensulfuron methyl and Metsulfuron methyl and selected herbicides were sprayed according to their recommended dosage.\nFurther field trials were carried out to test the synergy of the combination bensulfuron methyl, metsulfuron methyl and synthetic auxin fluroxypyr. The field trials were carried out at various locations in Europe during spring. […] The target weed was Papaver rhoeas (weed code—PAPRH) and the results are recorded in the table below:\nField trials were carried out test the synergy of the combination bensulfuron methyl, metsulfuron methyl, and synthetic auxin 2,4-D. The field trials were carried out at various locations in Europe during spring. […] The target weed were Senecio vulgaris (weed code—SENVU), Rapistrum rugosum (weed code—RASRU), Papaver rhoeas (weed code—PAPRH), Viola arvensis (Weed code—VIOAR), Roemeria hybrida (Weed code—is ROEHY), Galium aparine (Weed code—GALAP) and the results are recorded in the tables 3 and 4 below: […]"}, "[2]": {"system": "Viola arvensis (weed code—VIOAR)", "experiment": "Field trial, weed control of Viola arvensis in wheat", "details": "in Triticum aesti", "description": "as §1\n(§2) In the Colby method, the expected (or predicted) response of a combination of herbicides is calculated by taking the product of the observed response for each individual component of the combination when applied alone divided by 100 and subtracting this value from the sum of the observed response for each component when applied alone. An unexpected enhancement in efficacy of the combination is then determined by comparing the observed response of the combination to the expected (or predicted) response as calculated from the observed response of each individual component alone. […]\n(§3) The weed control activity of the individual herbicides of the invention and their combinations were evaluated on weeds such as Viola arvensis (weed code—VIOAR), Veronica persica (weed code—VERPE), Papaver rhoeas (weed code: PAPRH), Galium aparine (weed code—GALAP), Matricaria recutita weed code—MATCH), Veronica hederifolia (weed code—VERHE) and Viola arvensis (weed code—VIOAR.). […]"}, "[3]": {"system": "Rapistrum rugosum (weed code—RASRU)", "experiment": "Field trial, weed control of Rapistrum rugosum in wheat", "details": "in Triticum aesti", "description": "as §1, §2, §3"}, "[4]": {"system": "Roemeria hybrida (Weed code—is ROEHY)", "experiment": "Field trial, weed control of Roemeria hybrida in wheat", "details": "in Triticum aesti, 15 DAA; dose 0.1 Kg/ha (bensulfuron methyl + metsulfuron methyl), 2.6 l/ha (2,4D dimethylamine salt), 0.1 Kg/ha + 2.6 l/ha (mix)", "description": "as §1\n(§4) In the Colby method, the expected (or predicted) response of a combination of herbicides is calculated by taking the product of the observed response for each individual component of the combination when applied alone divided by 100 and subtracting this value from the sum of the observed response for each component when applied alone. […]"}, "[5]": {"system": "Senecio vulgaris (weed code—SENVU)", "experiment": "Field trial, weed control of Senecio vulgaris in wheat", "details": "in Triticum aesti, 9 DAA; dose 0.1 Kg/ha (bensulfuron methyl + metsulfuron methyl), 2.6 l/ha (2,4D dimethylamine salt), 2.6 l/ha + 0.1 Kg/ha (mix)", "description": "as §1, §4"}, "[6]": {"system": "Galium aparine (Weed code—GALAP)", "experiment": "Field trial, weed control of Galium aparine in wheat", "details": "in Triticum aesti, 16 DAA, dose 0.08 g (bensulfuron methyl + metsulfuron methyl)", "description": "(§5) In the Colby method, the expected (or predicted) response of a combination of herbicides is calculated by taking the product of the observed response for each individual component of the combination when applied alone divided by 100 and subtracting this value from the sum of the observed response for each component when applied alone. An unexpected enhancement in efficacy of the combination is then determined by comparing the observed response of the combination to the expected (or predicted) response as calculated from the observed response of each individual component alone. If the observed response of the combination is greater than the expected (or predicted) response, or stated conversely, if the difference between the observed and expected response is greater than zero, then the combination is said to be synergistic or unexpectedly effective.\n(§6) The trial was carried out in Randomized Complete Block (RCB) method, all field trials were conducted using this method. Each trial were replicated four times and conducted under GEP guidelines. Application volumes were varied for each mixture."}, "weeds in general (TTTTT)": {"system": "weeds in general (TTTTT)", "experiment": "Field trial, control of weeds in general in wheat", "details": "in Triticum aesti, dose 50 g + 4 g (bensulfuron methyl + metsulfuron methyl); for % Weed control TTTTT, Actual: 12 DAA", "description": "as §5, §6"}, "[7]": {"system": "Veronica persica (weed code—VERPE)", "experiment": "Field trial, weed control of Veronica persica in wheat", "details": "in Triticum aesti, dose 50 g + 4 g (bensulfuron methyl + metsulfuron methyl), 125 g (fluroxypyr), 50 g + 4 g + 125 g (mix)", "description": "as §1, §4"}, "[8]": {"details": "Table 2, PAPRH, dose bensulfuron methyl 50 g, metsulfuron methyl 4 g, fluroxypyr 125 g, mix 50 g + 4 g + 125 g"}, "[9]": {"details": "Table 2, second PAPRH column pair, dose bensulfuron methyl 50 g, metsulfuron methyl 4 g, fluroxypyr 125 g, mix 50 g + 4 g + 125 g"}}, "note": "Structures can show the parent of a compound that is named as a salt."}
{"smiles": "O=C(O)COc1ccc(Cl)cc1Cl", "note": "[2,4D dimethylamine salt, 2,4-Dichlorophenoxy acetic acid]", "values": [{"measurement": "% Weed control PAPRH, Actual", "setting": "[1]; Table 3, dose 0.1 Kg/ha (bensulfuron methyl + metsulfuron methyl), 2.6 l/ha (2,4D dimethylamine salt), 2.6 l/ha + 0.1 Kg/ha (mix)", "result": 37.5, "unit": "%"}, {"measurement": "% Weed control VIOAR, Actual", "setting": "[2]; Table 4, 12 DAA, dose 0.1 Kg/ha (bensulfuron methyl + metsulfuron methyl), 2.6 l/ha (2,4D dimethylamine salt), 0.1 Kg/ha + 2.6 l/ha (mix)", "result": 18.8, "unit": "%"}, {"measurement": "% Weed control RASRU, Actual", "setting": "[3]; Table 3, 12 DAA, dose 0.1 Kg/ha (bensulfuron methyl + metsulfuron methyl), 2.6 l/ha (2,4D dimethylamine salt), 2.6 l/ha + 0.1 Kg/ha (mix)", "result": 32.4, "unit": "%"}, {"measurement": "% Weed control ROEHY, Actual", "setting": "[4]", "result": 37.5, "unit": "%"}, {"measurement": "% Weed control SENVU, Actual", "setting": "[5]", "result": 62.5, "unit": "%"}]}
{"smiles": "COC(=O)c1ccccc1CS(=O)(=O)NC(=O)Nc1nc(OC)cc(OC)n1", "note": "[Bensulfuron methyl, methyl α-[(4,6-dimethoxypyrimidin-2-ylcarbamoyl)sulfamoyl]-o-toluate]", "values": [{"measurement": "% Weed control PAPRH, Actual", "setting": "[1]; [8]", "result": 50, "unit": "%"}, {"measurement": "% Weed control PAPRH, Actual", "setting": "[1]; [9]", "result": 50, "unit": "%"}]}
{"smiles": "O=C(Nc1ccc(F)cc1F)c1cccnc1Oc1cccc(C(F)(F)F)c1", "note": "[Diflufenican, 2′,4′-difluoro-2-(α,α,α-trifluoro-m-tolyloxy)nicotinanilide]", "values": [{"measurement": "% Weed control GALAP, Actual", "setting": "[6]; Table 7, first column pair, 0.05 g (diflufenican), 0.08 g + 0.05 g (mix)", "result": 13, "unit": "%"}, {"measurement": "% Weed control GALAP, Actual", "setting": "[6]; Table 7, second column pair, 0.08 g (diflufenican), 0.08 g + 0.08 g (mix)", "result": 20, "unit": "%"}, {"measurement": "% Weed control TTTTT, Actual", "setting": "weeds in general (TTTTT); Table 6, first column pair, 0.12 g (diflufenican), 50 g + 4 g + 0.12 g (mix)", "result": 11.7, "unit": "%"}, {"measurement": "% Weed control TTTTT, Actual", "setting": "weeds in general (TTTTT); Table 6, second column pair, 0.16 g (diflufenican), 50 g + 4 g + 0.16 g (mix)", "result": 3.0, "unit": "%"}, {"measurement": "% Weed control TTTT, Actual", "setting": "weeds in general (TTTTT); Table 6, third column pair, 12 DAA T, 0.16 g (diflufenican), 50 g + 4 g + 0.16 g (mix)", "result": 15, "unit": "%"}]}
{"smiles": "Nc1c(Cl)c(F)nc(OCC(=O)O)c1Cl", "note": "[Fluroxypyr, 4-amino-3,5-dichloro-6-fluoro-2-pyridyloxyacetic acid]", "values": [{"measurement": "% Weed control PAPRH, Actual", "setting": "[1]; [8]", "result": 28, "unit": "%"}, {"measurement": "% Weed control PAPRH, Actual", "setting": "[1]; [9]", "result": 79, "unit": "%"}, {"measurement": "% Weed control VIOAR, Actual", "setting": "[2]; 20 DAA, dose 50 g + 4 g (bensulfuron methyl + metsulfuron methyl), 125 g (fluroxypyr), 50 g + 4 g + 125 g (mix)", "result": 31, "unit": "%"}, {"measurement": "% Weed control VIOAR, Actual", "setting": "[2]; 57 DAA, dose 50 g + 4 g (bensulfuron methyl + metsulfuron methyl), 125 g (fluroxypyr), 50 g + 4 g + 125 g (mix)", "result": 28, "unit": "%"}, {"measurement": "% Weed control VERPE, Actual", "setting": "[7]; 20 DAA", "result": 51, "unit": "%"}, {"measurement": "% Weed control VERPE, Actual", "setting": "[7]; 57 DAA", "result": 55, "unit": "%"}]}
{"smiles": "Cc1cc(Cl)ccc1OCC(=O)O", "note": "[MCPA dimethylamine salt, 4-chloro-2-methylphenoxy acetic acid]", "values": [{"measurement": "% Weed control PAPRH, Actual", "setting": "[1]; Table 5, dose 0.1 kg/ha A (bensulfuron methyl + metsulfuron methyl), 4 l/ha (MCPA dimethylamine salt), 0.1 kg/ha A + 4 l/ha (mix)", "result": 63.8, "unit": "%"}, {"measurement": "% Weed control RASRU, Actual", "setting": "[3]; Table 5, 12 DAA, dose 0.1 kg/ha A (bensulfuron methyl + metsulfuron methyl), 4 l/ha (MCPA dimethylamine salt), 0.1 kg/ha A + 4 l/ha (mix)", "result": 34.8, "unit": "%"}, {"measurement": "% Weed control RASRU, Actual", "setting": "[3]; Table 5, 56 DAA, dose 0.1 kg/ha A (bensulfuron methyl + metsulfuron methyl), 4 l/ha (MCPA dimethylamine salt), 0.1 kg/ha A + 4 l/ha (mix)", "result": 88.3, "unit": "%"}]}
{"smiles": "COC(=O)c1ccccc1S(=O)(=O)NC(=O)Nc1nc(C)nc(OC)n1", "note": "[Metsulfuron methyl, methyl 2-(4-methoxy-6-methyl-1,3,5-triazin-2-ylcarbamoylsulfamoyl)benzoate]", "values": [{"measurement": "% Weed control PAPRH, Actual", "setting": "[1]; [8]", "result": 48, "unit": "%"}, {"measurement": "% Weed control PAPRH, Actual", "setting": "[1]; [9]", "result": 48.8, "unit": "%"}]}
